Columns and labels:
Test in all cases: relative viability (nuclei count vs DMSO), 5 days (fraction); higher = more cells survive
Adavosertib + Tozasertib = compound: C=CCn1c(=O)c2cnc(Nc3ccc(N4CCN(C)CC4)cc3)nc2n1-c1cccc(C(C)(C)O)n1 [Adavosertib] + Cc1cc(Nc2cc(N3CCN(C)CC3)nc(Sc3ccc(NC(=O)C4CC4)cc3)n2)n[nH]1 [Tozasertib] (partner 0.1 µM)
Method in brief: (§1)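 Dosing by pin tool came one day after lung cancer cell lines were seeded in 1536-well plates, using either one drug or a fixed anchor-drug dose plus five library-drug doses (not always all listed) in √10 steps. After 5 days, nuclei were counted on 4× images. Relative viability is treated-well nuclei count divided by vehicle-well nuclei count, and values are medians of duplicate plates.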

Adavosertib + Dasatinib = compound: C=CCn1c(=O)c2cnc(Nc3ccc(N4CCN(C)CC4)cc3)nc2n1-c1cccc(C(C)(C)O)n1 [Adavosertib] + Cc1nc(Nc2ncc(C(=O)Nc3c(C)cccc3Cl)s2)cc(N2CCN(CCO)CC2)n1 [Dasatinib] (partner 0.075 µM)
Method in brief: as §1

Adavosertib + OSI-027 = compound: C=CCn1c(=O)c2cnc(Nc3ccc(N4CCN(C)CC4)cc3)nc2n1-c1cccc(C(C)(C)O)n1 [Adavosertib] + COc1cccc2cc(-c3nc([C@H]4CC[C@H](C(=O)O)CC4)n4ncnc(N)c34)[nH]c12 [OSI-027] (partner 0.5 µM)
Method in brief: as §1

Adavosertib + Luminespib = compound: C=CCn1c(=O)c2cnc(Nc3ccc(N4CCN(C)CC4)cc3)nc2n1-c1cccc(C(C)(C)O)n1 [Adavosertib] + CCNC(=O)c1noc(-c2cc(C(C)C)c(O)cc2O)c1-c1ccc(CN2CCOCC2)cc1 [Luminespib] (partner 0.01 µM)
Method in brief: as §1

Question: Which relative viability (Adavosertib + Tozasertib; first compound 0.01 µM) does the source give for EMC-BAC-2 here?
Answer: The relative viability was 0.331.

Question: And the relative viability (Adavosertib + Tozasertib; first compound 0.03162 µM)?
Answer: Its relative viability is 0.318.

Question: And the relative viability (Adavosertib + Tozasertib; first compound 0.1 µM)?
Answer: Its relative viability is 0.261.

Question: What about the relative viability (Adavosertib + Tozasertib; first compound 0.3162 µM) of the same cell line?
Answer: Its relative viability is 0.28.

Question: And the relative viability (Adavosertib + Dasatinib; first compound 0.01 µM)?
Answer: The relative viability was 0.333.

Question: And the relative viability (Adavosertib + Dasatinib; first compound 0.03162 µM)?
Answer: The relative viability was 0.339.

Question: What about the relative viability (Adavosertib + Dasatinib; first compound 0.1 µM) of the same cell line?
Answer: Its relative viability is 0.324.

Question: And the relative viability (Adavosertib + Dasatinib; first compound 0.3162 µM)?
Answer: Its relative viability is 0.261.

Question: And the relative viability (Adavosertib + OSI-027; first compound 0.01 µM)?
Answer: Its relative viability is 0.375.

Question: And the relative viability (Adavosertib + OSI-027; first compound 0.03162 µM)?
Answer: The relative viability was 0.412.

Question: And the relative viability (Adavosertib + OSI-027; first compound 0.1 µM)?
Answer: The relative viability was 0.396.

Question: What about the relative viability (Adavosertib + OSI-027; first compound 0.3162 µM) of the same cell line?
Answer: Its relative viability is 0.307.

Question: And the relative viability (Adavosertib + Luminespib; first compound 0.01 µM)?
Answer: Its relative viability is 1.14.

Question: What about the relative viability (Adavosertib + Luminespib; first compound 0.03162 µM) of the same cell line?
Answer: The relative viability was 1.25.

Question: And the relative viability (Adavosertib + Luminespib; first compound 0.1 µM)?
Answer: The relative viability was 1.18.

Question: What about the relative viability (Adavosertib + Luminespib; first compound 0.3162 µM) of the same cell line?
Answer: The relative viability was 1.11.
